*1 amine or outer side, *2 acyl side, *3 side chain or, on linkers, in order; H or OH if unused. Where a SMILES comes first, the peptide text is derived from it. The star is where a group is joined. X1 = O=C(CCCC[C@@H]1SC[C@@H]2NC(=O)N[C@@H]21)NCCCOCCOCCOCCCN*; Suc = O=C(CCC(=O)[*:2])[*:1]
Tested on: 266 human PDZ domains (PDZome)
Test: Holdup assay (chromatographic retention, PDZome-binding profile, BI)
Design: key to maximal BI / Max BI / BI: binding intensity: 0.00 = no binding, 1.00 = maximal binding; Log(Kd): unit not given here
Experimental: The holdup method is a chromatographic approach in solution developed in our group that allows to measure the binding strength of a peptide, attached to a resin, against a library of domains of a same family. We initially proposed this method to explore the interaction between PBM peptides and the human PDZ domains. Briefly, a soluble cell lysate containing individually overexpressed PDZ domain is incubated until equilibrium with a calibrated amount of streptavidin-resin saturated either with the target biotinylated PBM peptide or with biotin as a reference. The flow-throughs containing the unbound protein fraction are recovered by filtration and loaded on a capillary electrophoresis instrument to quantify the amount of remaining free PDZ. The stronger the steady-state depletion of the PDZ domain in the flow-through as compared to the reference, the stronger the PDZ/PBM binding interaction. The assay is particularly suited to quantitatively evaluate and compare large numbers of interactions. This method delivers, for each PBM/PDZ pair, a "binding intensity" (BI), whose value can in principle range from 0.00 (no binding event detected) to 1.00 (maximal binding event). The approach has been automated and the human PDZ library was recently extended to the complete 266 PDZ domains known in human proteome. […] The high accuracy and efficiency of the holdup assay have been validated previously. Very recently, a manual version of the holdup assay with purified samples and using widespread benchtop equipment has been implemented and has proven to be reliable.
The 266 PDZ domains that constitute the PDZ library (“PDZome V.2”) used in the present work were produced using constructs with optimized boundaries as described previously. All the genes were fused to Maltose-Binding Protein (MBP) or Thioredoxin (THR) tag often used to facilitate the solubilisation of the over-expressed protein, by cloning them into the pETG41A or pETG20A plasmid, respectively. […] The expressed tag-PDZ concentrations were quantified using capillary gel electrophoresis and cell lysates were diluted to reach approximately 5 μM tag-PDZ before freezing in 96-well plates. A detailed protocol of the PDZ library production, expression and benchmarking can be found in [32]. PDZ domains are named according to their originating protein name followed by the PDZ number (e.g. NHERF1-1 as the first PDZ domain of the NHERF1 protein).
The holdup assay was performed on a Tecan freedom Evo200 robot with 384-well plates in singlicate for the three 11-mer PTEN variants and the 13-mer PTEN peptide as described in [31, 32]. Briefly, prior to interaction assay, 2.5 μL of streptavidin resin was saturated in each well with 20 μL of biotinylated PBM peptides (42 μM) and then washed twice with an excess of free biotin, while the reference resin was incubated only with biotin. Right before the holdup experiment, the PDZ library was spiked with an internal standard of lysozyme. Then, the biotin- or PBM-saturated resin was incubated, each in a distinct well of a 384-well plate, with complete cell lysates diluted so that the concentration of the tag-PDZ present in the crude extract is adjusted at 4 μM. After a sufficient time to reach complex equilibrium (15 min.), a fast and mild filtration step is performed and the tag-PDZ concentrations were measured by capillary electrophoresis instrument (LabChip GXII, PerkinElmer, Massachusets, USA). Standard markers were used to convert migration time into molecular weight on the LabChip software and inappropriate molecular weight markers were corrected or excluded.
Holdup data quality check and processing […]

[1] = PDZ domain PARD3-1, first of two lines so named (r186)

Compound: CC[C@H](C)[C@H](NC(=O)[C@H](CCC(N)=O)NC(=O)[C@@H](NC(=O)[C@H](Cc1c[nH]cn1)NC(=O)[C@H](CCC(N)=O)NC(=O)[C@H](CC(=O)O)NC(=O)[C@H](CCC(=O)O)NC(=O)[C@H](CC(=O)O)NC(=O)[C@H](Cc1ccccc1)NC(=O)[C@@H]1CCCN1C(=O)CCC(=O)NCCCOCCOCCOCCCNC(=O)CCCC[C@@H]1SC[C@@H]2NC(=O)N[C@@H]21)[C@@H](C)O)C(=O)N[C@H](C(=O)N[C@@H](CCCCN)C(=O)N[C@H](C(=O)O)C(C)C)[C@@H](C)O [PTEN_13] ({X1-Suc}-PFDEDQHTQITKV-OH)
- number of additional new PDZ partners not detected for PTEN_11 (BI>0.20, compared with PTEN_11): 24
- BI (PDZ domain MPDZ-2): 0.095
- BI (PDZ domain MPDZ-3): 0.139
- BI (PDZ domain MPDZ-4): 0.035
- BI (PDZ domain MPDZ-5): -0.002
- BI (PDZ domain MPDZ-6): -0.029
- BI (PDZ domain MPDZ-7): 0.23
- BI (PDZ domain MPDZ-8): 0.039
- BI (PDZ domain MPDZ-9 (gene NHERF2, 2)): -0.021
- BI (PDZ domain MPDZ-12): 0.024
- BI (PDZ domain MPDZ-13): 0.225
- BI (PDZ domain MPP1-1): -0.074
- BI (PDZ domain MPP2-1): -0.014
- BI (PDZ domain MPP3-1): -0.03
- BI (PDZ domain MPP4-1): 0
- BI (PDZ domain MPP5-1): 0.002
- BI (PDZ domain MPP6-1): -0.068
- BI (PDZ domain MPP7-1): -0.02
- BI (PDZ domain NHERF1-2): 0.132
- BI (PDZ domain NHERF3-1): 0.161
- BI (PDZ domain NHERF3-2): 0.06
- BI (PDZ domain NHERF3-3): 0.068
- BI (PDZ domain NHERF3-4): -0.008
- BI (PDZ domain NHERF4-1): 0.09
- BI (PDZ domain NHERF4-2): 0.132
- BI (PDZ domain NHERF4-3): 0.208
- BI (PDZ domain NHERF4-4): -0.036
- BI (PDZ domain NOS1-1): 0.002
- BI [1]: 0.146
- Log(Kd) [1]: 4.018
- BI (PDZ domain PARD3-2): -0.023
- BI (PDZ domain PARD3B-1): -0.096
- BI (PDZ domain PARD3B-2): 0.088
- BI (PDZ domain PARD3B-3): 0.134
- BI (PDZ domain PARD6A-1): -0.115
- BI (PDZ domain PARD6G-1): -0.065
- BI (PDZ domain PCLO-1): -0.006
- BI (PDZ domain PDLIM1-1): -0.067
- BI (PDZ domain PDLIM2-1): -0.078
- BI (PDZ domain PDLIM3-1): 0.139
- BI (PDZ domain PDLIM4-1): 0.003
- BI (PDZ domain PDLIM5-1): -0.025
- BI (PDZ domain PDLIM7-1): 0.039
- BI (PDZ domain PDZD2-1): -0.006
- BI (PDZ domain PDZD2-2): 0.054
- BI (PDZ domain PDZD2-3): -0.045
- BI (PDZ domain PDZD2-4): 0.107
- BI (PDZ domain PDZD2-5): 0.195
- BI (PDZ domain PDZD2-6): -0.066
- BI (PDZ domain PDZD4-1): 0.025
- BI (PDZ domain PDZD7-1): -0.034
- BI (PDZ domain PDZD7-2): -0.061
- BI (PDZ domain PDZD7-3): 0.811
- BI (PDZ domain PDZD8-1): 0.038
- BI (PDZ domain PDZD9-1): 0.075
- BI (PDZ domain PDZD11-1): -0.022
- BI (PDZ domain PDZRN3-1): 0.024
- BI (PDZ domain PDZRN3-2): 0.032
- BI (PDZ domain PDZRN4-1): -0.022
- BI (PDZ domain PDZRN4-2): -0.019
- BI (PDZ domain PICK1-1): 0.089
- BI (PDZ domain PPP1R9A-1): -0.068
- BI (PDZ domain PPP1R9B-1): -0.064
- BI (PDZ domain PREX1-1): -0.02
- BI (PDZ domain PREX1-2): 0.087
- BI (PDZ domain PREX2-1): 0.032
- BI (PDZ domain PREX2-2): -0.046
- BI (PDZ domain PRX-1): -0.006
- BI (PDZ domain PSCDBP-1): 0.094
- BI (PDZ domain PSMD9-1): 0.022
- BI (PDZ domain PTPN3-1): 0.015
- BI (PDZ domain PTPN4-1): 0.026
- BI (PDZ domain PTPN13-1): 0.009
- BI (PDZ domain PTPN13-3): -0.036
- BI (PDZ domain PTPN13-5): 0.022
- BI (PDZ domain RADIL-1): 0.092
- BI (PDZ domain RAPGEF2-1): -0.023
- BI (PDZ domain RAPGEF6-1): -0.02
- BI (PDZ domain RGS3-1): 0.249
- BI (PDZ domain RGS12-1): 0.04
- BI (PDZ domain RHPN1-1): 0.479
- BI (PDZ domain RHPN2-1): 0.033
- BI (PDZ domain RIMS1-1): -0.009
- BI (PDZ domain RIMS2-1): -0.031
- BI (PDZ domain SCRIB-1): 0.173
- BI (PDZ domain SCRIB-2): -0.031
- BI (PDZ domain SCRIB-4): -0.007
- BI (PDZ domain SDCBP2-1): 0.022
- BI (PDZ domain SDCBP2-2): -0.007
- BI (PDZ domain SDCBP-2): -0.032
- BI (PDZ domain SHROOM2-1): -0.059
- BI (PDZ domain SHROOM3-1): -0.047
- BI (PDZ domain SHROOM4-1): -0.086
- BI (PDZ domain SIPA1-1): -0.045
- BI (PDZ domain SIPA1L1-1): 0.023
- BI (PDZ domain SIPA1L2-1): -0.04
- BI (PDZ domain SIPA1L3-1): -0.026
- BI (PDZ domain SNTA1-1): 0.142
- BI (PDZ domain SNTB1-1): 0.224
- BI (PDZ domain SNTG1-1): 0.14
- BI (PDZ domain SNTG2-1): 0.015
- number of PDZ domains identified as potential binders (BI>0.20) (holdup, singlicate, threshold BI>0.20): 24 PDZ domains
- maximal BI (holdup, singlicate, highest BI in the PDZome profile, BI standard error ~0.07): 0.81
- effect on PDZ binding profile (in words) (holdup/FP profile, compared with PTEN_11): markedly stronger compared to the affinities observed for the same PDZ partners in PTEN_11
- Max BI (maximum over PDZome): 0.88
